Experimental data as given in PubChem BioAssay AID328 (DTP/NCI, 2004).
Toxic doses and inconclusive results are not listed.

Tested on: BDF1 mice, P388 leukemia ip, median survival T/C
Assay: NCI In Vivo Anticancer Drug Screen. Data for tumor model P388 Leukemia (intraperitoneal) in B6D2F1 (BDF1) mice
Conditions: endpoint: median survival time, higher = longer survival
In short: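 Each value expresses how treatment altered survival: treated-mouse outcome over vehicle-mouse outcome, both groups bearing the transplanted tumour.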

[1] = dose: 12.5 mg/kg/injection, schedule: Q01DX009 (ip), vehicle: saline with Tween-80
[2] = dose: 25.0 mg/kg/injection, schedule: Q01DX009 (ip), vehicle: saline with Tween-80
[3] = dose: 100.0 mg/kg/injection, schedule: Q01DX009 (ip), vehicle: saline with Tween-80
[4] = dose: 200.0 mg/kg/injection, schedule: Q01DX009 (ip), vehicle: saline with Tween-80
[5] = dose: 400.0 mg/kg/injection, schedule: Q04DX003 (ip), vehicle: saline with Tween-80
[6] = dose: 50.0 mg/kg/injection, schedule: Q01DX009 (ip), vehicle: saline with Tween-80
[7] = dose: 50.0 mg/kg/injection, schedule: Q04DX003 (ip), vehicle: Klucel (hydroxypropylcellulose) (HPC)
[8] = dose: 100.0 mg/kg/injection, schedule: Q04DX003 (ip), vehicle: saline with Tween-80
[9] = dose: 200.0 mg/kg/injection, schedule: Q04DX003 (ip), vehicle: saline with Tween-80

With `O=NN(CCCl)C(=O)Nc1c[nH]c(=O)[nH]c1=O` the T/C (dose: 0.08 mg/kg/injection, schedule: Q04DX003 (ip), vehicle: saline with Tween-80) was 155 % of control, the T/C (dose: 0.09 mg/kg/injection, schedule: Q04DX003 (ip), vehicle: saline with Tween-80) was 100 % of control and the T/C (dose: 0.15 mg/kg/injection, schedule: Q04DX003 (ip), vehicle: saline with Tween-80) was 180 % of control. For the same compound, the T/C (dose: 0.3 mg/kg/injection, schedule: Q04DX003 (ip), vehicle: saline with Tween-80) was 185 % of control, the T/C (dose: 0.78 mg/kg/injection, schedule: Q04DX003 (ip), vehicle: saline with Tween-80) was 175 % of control and the T/C (dose: 1.56 mg/kg/injection, schedule: Q04DX003 (ip), vehicle: saline with Tween-80) was 154 % of control. For the same compound, the T/C (dose: 2.4 mg/kg/injection, schedule: Q01DX009 (ip), vehicle: saline with Tween-80) was 186 % of control, the T/C (dose: 3.12 mg/kg/injection, schedule: Q04DX003 (ip), vehicle: saline with Tween-80) was 213 % of control and the T/C (dose: 3.6 mg/kg/injection, schedule: Q01DX009 (ip), vehicle: saline with Tween-80) was 201 % of control. The T/C (dose: 4.0 mg/kg/injection, schedule: Q01DX009 (ip), vehicle: saline with Tween-80) was 195 % of control, the T/C (dose: 5.5 mg/kg/injection, schedule: Q01DX009 (ip), vehicle: saline with Tween-80) was 193 % of control and the T/C (dose: 6.0 mg/kg/injection, schedule: Q01DX009 (ip), vehicle: saline with Tween-80) was 229 % of control. The T/C (dose: 6.25 mg/kg/injection, schedule: Q04DX003 (ip), vehicle: saline with Tween-80) was 190 % of control, the T/C (dose: 8.0 mg/kg/injection, schedule: Q01DX009 (ip), vehicle: saline with Tween-80) was 220 % of control and the T/C (dose: 8.0 mg/kg/injection, schedule: Q04DX003 (ip), vehicle: saline with Tween-80) was 204 % of control. For the same compound, the T/C (dose: 9.0 mg/kg/injection, schedule: Q01DX009 (ip), vehicle: saline with Tween-80) was 120 % of control, the T/C (dose: 12.0 mg/kg/injection, schedule: Q01DX009 (ip), vehicle: saline with Tween-80) was 250 % of control and the T/C (dose: 12.0 mg/kg/injection, schedule: Q04DX003 (ip), vehicle: saline with Tween-80) was 204 % of control. The T/C [1] was 250 % of control, the T/C (dose: 12.5 mg/kg/injection, schedule: Q04DX003 (ip), vehicle: saline with Tween-80) was 230 % of control and the T/C (dose: 18.0 mg/kg/injection, schedule: Q01DX009 (ip), vehicle: saline with Tween-80) was 104 % of control. The T/C (dose: 18.0 mg/kg/injection, schedule: Q04DX003 (ip), vehicle: saline with Tween-80) was 227 % of control, the T/C [2] was 100 % of control and the T/C (dose: 25.0 mg/kg/injection, schedule: Q04DX003 (ip), vehicle: saline with Tween-80) was 230 % of control. For the same compound, the T/C (dose: 50.0 mg/kg/injection, schedule: Q04DX003 (ip), vehicle: saline with Tween-80) was 230 % of control.
In the case of `COC(=O)c1ccc(COc2ccc([N+](=O)[O-])cc2Cl)cc1`, the T/C (dose: 44.0 mg/kg/injection, schedule: Q01DX009 (ip), vehicle: saline with Tween-80) is reported as 90 % of control, the T/C (dose: 66.0 mg/kg/injection, schedule: Q01DX009 (ip), vehicle: saline with Tween-80) is reported as 90 % of control and the T/C [3] is reported as 90 % of control. For the same compound, the T/C (dose: 150.0 mg/kg/injection, schedule: Q01DX009 (ip), vehicle: saline with Tween-80) was 86 % of control, the T/C (dose: 176.0 mg/kg/injection, schedule: Q04DX003 (ip), vehicle: saline with Tween-80) was 100 % of control and the T/C [4] was 115 % of control. For the same compound, the T/C (dose: 264.0 mg/kg/injection, schedule: Q04DX003 (ip), vehicle: saline with Tween-80) was 100 % of control, the T/C (dose: 400.0 mg/kg/injection, schedule: Q01DX009 (ip), vehicle: saline with Tween-80) was 105 % of control and the T/C [5] was 90 % of control.
For `Cc1ccc(CBr)c2ccccc12`, the T/C (dose: 6.25 mg/kg/injection, schedule: Q01DX009 (ip), vehicle: saline with Tween-80) was 102 % of control, the T/C [1] was 114 % of control and the T/C [2] was 124 % of control. For the same compound, the T/C [6] was 105 % of control and the T/C [3] was 121 % of control.
With `O=c1cc[nH]c(=O)o1` the T/C (dose: 19.0 mg/kg/injection, schedule: Q01DX009 (ip), vehicle: water) was 157 % of control, the T/C (dose: 28.0 mg/kg/injection, schedule: Q01DX009 (ip), vehicle: water) was 169 % of control and the T/C (dose: 42.0 mg/kg/injection, schedule: Q01DX009 (ip), vehicle: water) was 168 % of control. For the same compound, the T/C (dose: 63.0 mg/kg/injection, schedule: Q01DX009 (ip), vehicle: water) was 94 % of control.
In the case of `CCOC(=O)N1CCN(CCCCCOc2ccc(CC(C)(C)C)cc2Cl)CC1`, the T/C [6] is reported as 121 % of control and the T/C [3] is reported as 118 % of control.
For `O=C1Nc2ccccc2SC1C1SC(=S)N(Cc2ccccc2)C1=O` (stereo unspecified), the T/C [6] was 102 % of control, the T/C [3] was 86 % of control and the T/C [4] was 86 % of control.
For `C=CC(CN1CC1)OC(C)=O` (stereo unspecified), the T/C (dose: 2.0 mg/kg/injection, schedule: Q01DX010 (ip), vehicle: saline) was 112 % of control, the T/C (dose: 4.0 mg/kg/injection, schedule: Q01DX010 (ip), vehicle: saline) was 163 % of control and the T/C (dose: 8.0 mg/kg/injection, schedule: Q01DX010 (ip), vehicle: saline) was 181 % of control. For the same compound, the T/C (dose: 16.0 mg/kg/injection, schedule: Q01DX010 (ip), vehicle: saline) was 166 % of control.
`Cc1c(C(=O)O)nc(/C=C/C(Cl)(Cl)Cl)[nH]c1=O` was tested, and the T/C (dose: 25.0 mg/kg/injection, schedule: Q04DX003 (ip), vehicle: Klucel (hydroxypropylcellulose) (HPC)) was 102 % of control, the T/C [7] was 100 % of control and the T/C (dose: 100.0 mg/kg/injection, schedule: Q04DX003 (ip), vehicle: Klucel (hydroxypropylcellulose) (HPC)) was 115 % of control. For the same compound, the T/C (dose: 200.0 mg/kg/injection, schedule: Q04DX003 (ip), vehicle: Klucel (hydroxypropylcellulose) (HPC)) was 103 % of control and the T/C (dose: 400.0 mg/kg/injection, schedule: Q04DX003 (ip), vehicle: Klucel (hydroxypropylcellulose) (HPC)) was 116 % of control.
In the case of `Fc1ccc(C=Nc2cccc(Cl)c2)cc1`, the T/C [8] is reported as 108 % of control, the T/C [9] is reported as 104 % of control and the T/C [5] is reported as 108 % of control.
`CC(C)(C)OC(=O)NC(CCCCNC(=O)OCc1ccccc1)C(=O)NC(CCCCNC(=O)OCc1ccccc1)C(=O)NC(CCCCNC(=O)OCc1ccccc1)C(=O)OCc1ccccc1` (stereo unspecified) was tested, and the T/C (dose: 50.0 mg/kg/injection, schedule: Q01DX005 (ip), vehicle: saline with Tween-80) was 86 % of control and the T/C (dose: 200.0 mg/kg/injection, schedule: Q01DX005 (ip), vehicle: saline with Tween-80) was 90 % of control.
`O=C(O)/C(Cc1cnc2ccccc2n1)=N\O` was tested, and the T/C [8] was 95 % of control, the T/C [9] was 100 % of control and the T/C [5] was 91 % of control.
In the case of `CCCCOCN(COCCCC)C12CC3CC(CC(C3)C1)C2`, the T/C [6] is reported as 120 % of control.
For `C[P+](Cc1ccc([N+](=O)[O-])cc1)(c1ccccc1)c1ccccc1`, the T/C (dose: 1.56 mg/kg/injection, schedule: Q01DX009 (ip), vehicle: Klucel (hydroxypropylcellulose) (HPC)) was 96 % of control, the T/C (dose: 3.12 mg/kg/injection, schedule: Q01DX009 (ip), vehicle: Klucel (hydroxypropylcellulose) (HPC)) was 88 % of control and the T/C (dose: 12.5 mg/kg/injection, schedule: Q01DX009 (ip), vehicle: Klucel (hydroxypropylcellulose) (HPC)) was 89 % of control. The T/C (dose: 12.5 mg/kg/injection, schedule: Q04DX003 (ip), vehicle: Klucel (hydroxypropylcellulose) (HPC)) was 100 % of control and the T/C [7] was 104 % of control.
In the case of `CC(C)CNC(=O)C12CC3CC(CC(C3)C1)C2`, the T/C [1] is reported as 104 % of control, the T/C [2] is reported as 107 % of control and the T/C [6] is reported as 104 % of control. The T/C [3] was 101 % of control.
For `Cc1c(O)ccc(=O)n1O`, the T/C (dose: 20.0 mg/kg/injection, schedule: Q01DX009 (ip), vehicle: Klucel (hydroxypropylcellulose) (HPC)) was 108 % of control, the T/C (dose: 20.0 mg/kg/injection, schedule: Q01DX009 (ip), vehicle: saline) was 95 % of control and the T/C (dose: 40.0 mg/kg/injection, schedule: Q01DX009 (ip), vehicle: Klucel (hydroxypropylcellulose) (HPC)) was 121 % of control. For the same compound, the T/C (dose: 40.0 mg/kg/injection, schedule: Q01DX009 (ip), vehicle: saline with Tween-80) was 117 % of control, the T/C (dose: 40.0 mg/kg/injection, schedule: Q01DX009 (ip), vehicle: saline) was 95 % of control and the T/C (dose: 80.0 mg/kg/injection, schedule: Q01DX009 (ip), vehicle: Klucel (hydroxypropylcellulose) (HPC)) was 110 % of control. The T/C [3] was 116 % of control, the T/C [8] was 104 % of control and the T/C (dose: 160.0 mg/kg/injection, schedule: Q01DX009 (ip), vehicle: saline with Tween-80) was 122 % of control. For the same compound, the T/C (dose: 160.0 mg/kg/injection, schedule: Q01DX009 (ip), vehicle: saline) was 100 % of control, the T/C [4] was 108 % of control and the T/C [9] was 100 % of control. For the same compound, the T/C [5] was 90 % of control.
For `C=C1CC[N+]2(CC(C)C)CCCC12` (stereo unspecified), the T/C (dose: 12.5 mg/kg/injection, schedule: Q04DX003 (ip), vehicle: saline) was 107 % of control, the T/C (dose: 25.0 mg/kg/injection, schedule: Q04DX003 (ip), vehicle: saline) was 102 % of control and the T/C (dose: 50.0 mg/kg/injection, schedule: Q04DX003 (ip), vehicle: saline) was 106 % of control.
